Test results as given in patent US6642365B1, “Anti-(retro)viral conjugates of saccharides and acetamidino or guanidino compounds” (Yeda Research and Development Co. Ltd., priority 2001, dated 2003).
“Also recorded” adds a separate entry of the source. Like-named read-outs stand apart in the source and are kept apart here.

Legend:
[1] = test system: HIV-1 NL4-3; assay: Anti-HIV assay, MTT, MT-4 cells; assay type: cell-based
Experimental: The HIV-1 strains NL4-3 and Ba-L and the CD4^+lymphocytic cell lines SUP-T1, MT-4 and MT-2 and P4-CCR5 MAGI cells were obtained from the MRC AIDS reagent program or the NIH, AIDS Research and Reference Reagent Program.
(§1) The cells were infected by incubation with different titers of the HIV-1 strains for 2 hrs at 37° C. in the presence or absence of the AAC of the invention. Then the cells were washed from the virus by centrifugation at 400 g and the supernatants were discarded. The cells were resuspended in culture medium, supplemented with different concentrations of the test compounds. The cells were allowed to proliferate for 5 days, the number of viable cells was quantified by a tetrazolium-based colorimetric method (CellTiter 96® AQueous One solution Cell Proliferation Assay, Promega). Anti-HIV activity in P4-CCR5 MAGI cells was done as follows: cells (1×10^5/ml) were infected with 10 ng/ml of p24 antigen of HIV-1 Ba-L in the presence of varying concentrations of the test compound. 24 hours post infection, cells were washed twice with PBS and resuspended in the medium containing the appropriate drug concentration. Five days after infection the cells were washed with PBS and evaluated for β-galactosidase activity.

[2] = test system: HIV-1 NL4-3; assay: Virus-binding assay, p24 antigen bound to MT-4 cells; assay type: cell-based; conditions: 0.5 μg/ml
Experimental: MT4 cells (5×10^5) were incubated with supernatant containing 1×10^5 pg of p24 antigen of wild type HIV-1 in the presence of different concentrations of the test compound. One hour after infection, cells were washed 3 times with PBS and p24 antigen bound to the cells was determined by a commercial ELISA test (Coulter, Spain).

[3] = test system: HIV-1 NL4-3 AMD3100-resistant; assay type: cell-based
[4] = biological target: T1, CXCR4 (Homo sapiens, UniProt P61073); assay: Inhibition of anti-CXCR4 mAb (12G5) binding, flow cytometry, SUP-T1 cells; set-up: endogenous in cells
Experimental: (§2) Measurement of chemokine receptors CXCR4, CCR5 and the CD4 receptor on phytohemagglutinin (PHA)-activated PBMC was performed by flow cytometry analysis. Briefly, 0.5×10^6 cells were washed in ice-cold phosphate-buffered saline (PBS) and incubated for 30 minutes at 4÷C. with fluorescent labelled mAb 12G5 and 2D7 and Leu3a (Becton Dickinson, San Jose, Calif.) or with isotype control mAbs in the presence or absence of the test compound. Then, the cells were washed with ice-cold PBS and were fixed in PBS containing 1% formaldehyde. For each sample, 10,000 events were analysed in a FACScalibur™ system (Becton Dickinson). Data were acquired and analysed with CellQuest™ software (Becton Dickinson).

[5] = biological target: Tat-TAR interaction; assay: Gel-shift inhibition of Tat R52 peptide binding to TAR RNA; set-up: species or system HIV-1; conditions: TAR RNA 6 nM; 60 nM Tat R52; read-out: CI50 (the source's name)
Experimental: The model Tat peptide (R52: […]) was prepared by the Weizmann Institute Chemical Services and was purified by reverse phase HPLC (C-18) (Lapidot et al., 1995). A 31-nt TAR RNA fragment (5′-GGCCAGAUCUGAGCCUGGGAGCUCUCUGGCC-3′) containing the sequence 18-44 of the HIV LTR (Aboul-Ela et al., 1995) was transcribed in vitro by T7 RNA polymerase (Promega) from a synthetic single strand DNA template containing the 17 base double-stranded T7 promoter (both DNA oligonucleotides were prepared by the Weizmann Institute Chemical Services). The RNA was transcriptionally labeled with α-^32P UTP, purified on a 12% polyacrylamide/7M urea gel (19:1 acrylamide:bis-acrylamide) and was eluted from the gel by 0.5M ammonium acetate, 10 mM magnesium acetate, 1 mM EDTA and 0.1% SDS. The sample was subjected to phenol extraction and the RNA was precipitated from 70% ethanol. Purified RNA was dissolved in diethyl pyrocarbonate-treated water (DEPC water), its concentration was determined by UV absorption at 260 nm and the specific radioactivity was determined by scintillation counting on a LS 1701 “Bruker” counter.
To study the affinity of the test compounds to TAR, gel-shift and gel-shift inhibition experiments were performed. The binding reaction mixtures (20 μl) contained ^32P-labeled TAR (18-44) RNA oligonucleotide (3-6 nM) and Tat R52 peptide (35-75 nM) in a binding buffer (10 mM Tris-HCl pH 7.5, 70 mM NaCl, 0.2 mM EDTA and 5% glycerol). The reaction mixtures were incubated for 10 minutes on ice and resolved by electrophoresis on a 10% non-denaturing polyacrylamide gel (40:1 acrylamide:bis-acrylamide) at 200V, for 3 h at 4° C. Gels were dried and visualized by autoradiography. Quantitations were obtained by optical densitometry of films. Alternatively, results were visualized by exposing the wet gels to Fuji phosphoimager plates, which were read on a “Storm 820” (Molecular Dynamics) phosphoimager. Different concentrations of TAR RNA (6,12 and 20 nM) were titrated with various concentrations of Tat R52 in the binding reactions.
Binding inhibition by the monosaccharide derivatives was measured by adding several concentrations of each compound to reaction mixtures containing 60 nM Tat 52 and 6 nM ^32P TAR, attaining 100% binding of Tat TAR in the absence of inhibitors (Lapidot et al., 1995).

[6] = test system: TAR RNA; assay: L-arginine-Amberlite affinity column elution of TAR RNA; assay type: binding, HIV-1; conditions: concentration that elutes 50% of TAR RNA from L-arginine-Amberlite affinity column
Experimental: The model Tat peptide (R52: […]) was prepared by the Weizmann Institute Chemical Services and was purified by reverse phase HPLC (C-18) (Lapidot et al., 1995). […] The RNA was transcriptionally labeled with α-^32P UTP, purified on a 12% polyacrylamide/7M urea gel (19:1 acrylamide:bis-acrylamide) and was eluted from the gel by 0.5M ammonium acetate, 10 mM magnesium acetate, 1 mM EDTA and 0.1% SDS. The sample was subjected to phenol extraction and the RNA was precipitated from 70% ethanol. Purified RNA was dissolved in diethyl pyrocarbonate-treated water (DEPC water), its concentration was determined by UV absorption at 260 nm and the specific radioactivity was determined by scintillation counting on a LS 1701 “Bruker” counter.
The L-arginine-Amberlite resin was prepared as follows: Carboxyl groups of Amberlite IRC-50 resin were covalently modified with ethanolamine using 1-(3-dimethylaminopropyl) 3-ethylcarbodiimide, a water-soluble coupler. The hydroxy ethyleneamide resin obtained was washed and dried, and L-arginine (12-16 μmols per ml of resin) was coupled to the hydroxy groups of the resin via an isourea moiety using a standard cyanogen bromide protocol. The final concentration of arginine residues was 12-16 μmol per ml of resin. The swollen L-arginino-Amberlite resin (200 μl) was packed into a plastic mini-column and equilibrated with buffer containing 40 mM Tris HCl, pH 7.5, 250 mM NaCl, 0.5 mM EDTA and 5 mM MgCl2 (buffer A). Approximately 1 ng of ^32P-UTP labeled TAR RNA in buffer A was loaded on the column. The column was eluted 3 to 5 times with 400 μl portions of buffer A, until no radioactivity was detected in the eluent. […] Each of the test compounds was dissolved in buffer A and passed through the column in 300 μl portions. Radioactivity of the eluates was determined by scintillation counting on a LS 1701 “Bruker” counter. CE50 values, the concentrations of inhibitors eluting 50% of the radioactive material from the column, were determined.

[7] = biological target: Tat-TAR interaction; assay: Gel-shift inhibition of Tat R52 peptide binding to TAR RNA; set-up: species or system HIV-1; conditions: TAR RNA 2 nM; read-out: CI50 (the source's name)
[8] = test system: Tat-TAR complex; conditions: cited from earlier work
[9] = test system: HIV Rev-RRE interaction; conditions: at 100 μM; cited from earlier work
[10] = test system: MT-2 cells as well as PMBC lines ETH and IS; conditions: ratio CC50/EC50
Experimental: as §1

[11] = test system: HIV-1 IIIB; assay: Anti-HIV assay, syncytium formation and tetrazolium colorimetric assay; assay type: cell-based; conditions: range over IIIb, 2D, AZT resistant, UC781 resistant and clade C HIV-1
Experimental: (§3) T-tropic HIV-1 laboratory strains IIIb, 2D as well as AZT-resistant and UC781-resistant strains were utilized in this study, along with clinical isolate (clade C). HIV-1 clinical isolate, resistant to AZT is a generous gift from Dr. Mark A. Wainberg, McGill AIDS Center, McGill University, Montreal, Canada.
(§4) MT-2 or MT-4 cells were cultured in RPMI 1640 supplemented with 10% fetal calf serum (FCS), 0.2 mM glutamine and penicilline/streptomycin/nistatin mixture. The cells were propagated in 96-well tissue culture plates at the density of 5×10^4 cells per well. Peripheral mononuclear blood cells (PMBC) were separated from whole blood samples by centrifugation in Ficoll gradient for 10 min at 400 g. PMBC were cultured in the same medium in 24-well tissue culture plates at the density of about 10^6 cells per well.

[12] = test system: HIV-1 clinical isolate (clade C); assay: as above; assay type: cell-based
Experimental: as §3, §4

[13] = test system: HIV-1 2D; assay type: cell-based
Experimental: as §3, §4

[14] = biological target: T1, CXCR4; assay: Inhibition of anti-CXCR4 mAb (12G5) binding, flow cytometry, PHA-activated PBMC; set-up: endogenous in cells
Experimental: as §2

T1 sequence (P61073 whole entry): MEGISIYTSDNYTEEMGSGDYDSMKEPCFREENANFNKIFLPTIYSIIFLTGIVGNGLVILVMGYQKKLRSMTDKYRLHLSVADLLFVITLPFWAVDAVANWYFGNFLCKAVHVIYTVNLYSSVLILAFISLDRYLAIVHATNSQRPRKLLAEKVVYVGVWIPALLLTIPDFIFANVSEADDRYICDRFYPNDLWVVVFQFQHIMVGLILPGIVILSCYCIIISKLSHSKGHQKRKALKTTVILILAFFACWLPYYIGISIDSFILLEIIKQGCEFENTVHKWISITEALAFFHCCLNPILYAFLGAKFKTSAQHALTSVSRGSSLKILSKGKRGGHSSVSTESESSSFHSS

With SDF-1α the EC50 [1] was 40 nM, the “binding of HIV-1 to MT-4 cells” value [2] was “did not inhibit the binding” and the EC50 ([3]; MTT assay, read-out: EC50 HIV-1 AMD 3100res) was greater than 1000 nM. The “cross-resistance of NL4-3 AMD3100-resistant virus” value ([3]; relative to NL4-3) was greater than 25 fold and the IC50 [4] was 13 nM.
In the case of `Cl.N=C(N)NCCC[C@H](N)C(=O)O` [Arginine HCl, reference compound], the IC50 [5] is reported as 38 mM, the CE50 [6] is reported as 1500 mM and the IC50 [7] is reported as 4 mM.
In the case of `NC[C@@H]1O[C@H](O[C@H]2[C@@H](O)[C@H](O[C@@H]3[C@@H](O)[C@H](N)C[C@H](N)[C@H]3O[C@H]3O[C@H](CN)[C@@H](O)[C@H](O)[C@H]3N)O[C@@H]2CO)[C@H](N)[C@@H](O)[C@@H]1O` [Neomycin B, reference compound], the “concentration range of inhibitory effect on Tat binding to TAR” value ([8]; in vitro) is listed as 1 to 100 µM.
For gentamicin, the “inhibition of Rev-RRE interaction” value [9] is listed as “do not display any inhibition”.
For “native Tat: HIV trans-activator of transcription protein”, the Kd ([8]; comparison value, read-out: Kd of the native Tat-TAR complex) is given as 6 to 12 nM.
`CO[C@@H]1O[C@H](CC(N)=O)C(O)[C@H](O)[C@@H]1O` (stereo partly drawn) [compound 8, Methyl 6-deoxy-α-D-mannoheptopyranuronic acid amide] showed a melting point of 177 °C.
For “Hexa/penta-argininamido-neomycin B conjugate [NeoR]”, the TI50 [10] was 60-85, the EC50 [11] was 3 to 4 µM and the “inhibition of virus growth” value ([12]; MT-2 cells infected in presence of 20 μM R3G or 10 μM NeoR, then 3 days without AAC) was 60%. For the same compound, the EC50 ([12]; average of two independent experiments in duplicates) was 3000 nM, the EC50 [13] was 4 µM and the “antiviral effect in the presence of AZT” value [13] was “additive”. For the same compound, the “binding of 12G5 mAb to PHA-activated PBMC” value ([14]; 5 μM) was “suppressed significantly more than in the presence of 5 μM R3G; also recorded: suppressed”, the IC50 ([14]; read-out: IC50-12G5 PMBC) was 2400 nM and the “affinity for CXCR4” value ([4]; inhibition of 12G5 binding to SUP-T1 cells or PMBC) was “high affinity”.
